We go through 16 compounds from patent US10759785B2, “Compounds” (ENTERPRISE THERAPEUTICS LIMITED, priority 2016, dated 2020).

SMILES strings stand for the structures. Counter-ions that a name gives are not always drawn.

What all share (type): in vitro ADME
Series [1] in a line: Microsomal stability (rat microsomes). The note with it: pH 7.4, 1 μM test compound, 0.5 mg/mL protein, 1 mM NADPH, 37° C., read-out: Averages. Mic Half Life Rat. Here is the method: (§1) Example 28—Microsomal Stability
(§2) Microsomes (rat and human) were obtained from Bioreclamation. Test compound stock solutions in DMSO (10 mM) were diluted with DMSO to 2 mM. Further dilution was completed to achieve a 100 μM stock (final concentrations; 91.5% Acetonitrile: 8.5% DMSO). Final test compound concentration in incubation was 1 μM (<0.1% DMSO). The following probe substrates were used: verapamil, propranolol, metoprolol and phenacetin (rat) at a final incubation concentration of 1 μM. Assay buffer—Solution 1: 17.4 g potassium phosphate dibasic anhydrous (K2HPO4, 0.1 M) dissolved in 1 L deionised water. Solution 2: 13.6 g potassium phosphate monobasic anhydrous (KH2PO4, 0.1 M) dissolved in 1 L deionised water. Potassium phosphate solutions 1 and 2 were combined to form a pH 7.42 solution at 37° C. pH 7.4 with 2 mM magnesium chloride. NADPH (10 mM)—diluted in deionised water. Frozen microsomes were thawed at 37° C. Microsomes were diluted in assay buffer to achieve a final protein concentration of 0.5 mg/mL and 1 mM NADPH. The following procedure was completed on a Perkin Elmer Janus robotic platform in 96 well format: The microsomal incubation plate was transferred to a heater shaker at 300 rpm and solution heated to 37° C. for 10 min pre-warm. A no co-factor control at 0 and 45 min and one replicates of each test compound was included in every assay. Microsomes were incubated at 37° C., on a shaker set at 300 rpm throughout the assay. At each timepoint (0, 5, 15, 30, 45 min) 50 μL of sample was removed from the 96-well and added to 200 μL of quench solution (acetonitrile containing 0.1% formic acid and imipramine/labetalol, 200 nM). Samples were diluted 1:1 with water using the Janus Robot and analysed by LC-MS/MS.

Series [2] can be described thus: Hepatic stability (rat cryopreserved hepatocytes). The settings on record: pH 7.4, 1 μM test compound, 1×10^6 cells/mL, 37° C., read-out: Averages. Hep Half Life Rat. Here is the method: (§3) Example 29—Hepatic Stability
(§4) Cryopreserved hepatocytes (rat and human) were obtained from Bioreclamation. Test compound stock solutions in DMSO (10 mM) were diluted with DMSO to 4 mM. Further dilution was completed to achieve a 100 μM stock (5 μL of 4 mM in 195 μL of 50:50 DMSO:hepatocyte buffer). Final test compound concentration in incubation was 1 μM. The following probe substrates were used: testosterone and carbamazepine at a final incubation concentration of 1 μM. Hepatocyte buffer was prepared (Williams E media containing phenol red and Glutamax™, 15 mM HEPES, warmed to 37° C., pH7.4 with NaOH). Cells were removed from liquid nitrogen, thawed in a waterbath, decanted into 50 mL of pre-warmed Cryopreserved Hepatocyte Recovery Media (LifeTechnologies) and centrifuged. Supernatant fraction was removed, cells were re-suspended in hepatocyte buffer and counted by trypan blue exclusion. Cell viability of >80% was required for all assays. Cells were re-suspended to 1×10^6/mL and 198 μL cell suspension added to each 96-well. 2 μL of 100 μM compound stock solution was added to relevant wells to initiate the incubation. A no cell control and two replicates of each test compound was included in every assay. Cells were incubated at 37° C., on a shaker set at 300 rpm. At each timepoint (0, 15, 30, 45, 60, 90 min) 20 μL of sample was removed from the 96-well and added to 80 μL of quench solution (acetonitrile containing 0.1% formic acid and imipramine/labetalol, 200 nM). Samples were diluted 1:1 with water using the Janus Robot and analysed by LC-MS/MS.

A short description of series [3]: Hepatic stability (human cryopreserved hepatocytes). The note with it: 1×10^6 cells/mL, 37° C.; for half-life at 1 μM: cryopreserved hepatocytes, pH 7.4, 1 μM test compound, read-out: Averages. Hep Half Life Human; for Averages. Hep Half Life Human: 1 μM test compound. As to the method:
as §3, §4

A short description of series [4]: Microsomal stability (human microsomes). The settings on record: 0.5 mg/mL protein, 1 mM NADPH, 37° C.; for half-life at 1 μM: pH 7.4, 1 μM test compound, read-out: Averages. Mic Half Life Human; for Averages. Mic Half Life Human: 1 μM test compound. Here is the method: as §1, §2

Broadly, the half-life is the time needed for the level to fall by half in the phase considered.

In the case of `CCn1c(CNC(=O)c2nc(Br)cnc2N)[n+](CC)c2ccc(OC)cc21.O=C[O-]` [Example 2, 2-{[(3-amino-6-bromopyrazin-2-yl)formamido]methyl}-1,3-diethyl-6-methoxy-1H-1,3-benzodiazol-3-ium formate], the half-life at 1 μM is 3 min in series [1], 5 min in series [2], 90 min in series [3] and 58 min in series [4].
For the compound `CCn1c(CNC(=O)c2nc(Br)cnc2N)[n+](CCO)c2ccc(OC)cc21.O=C[O-]` [Example 3, 2-{[(3-amino-6-bromopyrazin-2-yl)formamido]methyl}-1-ethyl-3-(2-hydroxyethyl)-6-methoxy-1H-1,3-benzodiazol-3-ium formate], the half-life at 1 μM was found to be 4 min in series [1], 13 min in series [2] and 89 min in series [4]. The “Averages. Hep Half Life Human” value in series [3] came out at 240 min.
Consider `CCn1c(CNC(=O)c2nc(Br)cnc2N)[n+](CCOCCOCCO)c2ccc(OC)cc21.O=C[O-]` [Example 4, 2-{[(3-amino-6-bromopyrazin-2-yl)formamido]methyl}-1-ethyl-3-{2-[2-(2-hydroxyethoxy)ethoxy]ethyl}-6-methoxy-1H-1,3-benzodiazol-3-ium formate], for which the half-life at 1 μM in series [1] turned out to be 8 min; in series [2], 16 min; in series [4], 86 min. The “Averages. Hep Half Life Human” value in series [3] amounted to 240 min.
Take `CCn1c(CNC(=O)c2nc(Cl)cnc2N)[n+](C)c2ccc(OC)cc21.[I-]` [Example 5, 2-{[(3-amino-6-chloropyrazin-2-yl)formamido]methyl}-1-ethyl-6-methoxy-3-methyl-1H-1,3-benzodiazol-3-ium iodide]: the half-life at 1 μM in series [1] was 4 min; in series [2] it was 5 min; in series [3], 68 min; in series [4], 12 min.
Turning to `CCn1c(CNC(=O)c2nc(C)cnc2N)[n+](C)c2ccc(OC)cc21.[I-]` [Example 7, 2-{[(3-amino-6-methylpyrazin-2-yl)formamido]methyl}-1-ethyl-6-methoxy-3-methyl-1H-1,3-benzodiazol-3-ium iodide], the half-life at 1 μM in series [1] was 7 min; in series [2], 16 min; in series [3], 129 min; in series [4] it was 22 min.
For `CCc1cnc(N)c(C(=O)NCc2n(CC)c3cc(OC)ccc3[n+]2C)n1.[I-]` [Example 8, 2-{[(3-amino-6-ethylpyrazin-2-yl)formamido]methyl}-1-ethyl-6-methoxy-3-methyl-1H-1,3-benzodiazol-3-ium iodide], the half-life at 1 μM amounted to 3 min in series [1] and 23 min in series [4].
As to `CCn1c(CNC(=O)c2nc(SC)cnc2N)[n+](C)c2ccc(OC)cc21.[I-]` [Example 9, 2-({[3-amino-6-(methylsulfanyl)pyrazin-2-yl]formamido}methyl)-1-ethyl-6-methoxy-3-methyl-1H-1,3-benzodiazol-3-ium iodide], the half-life at 1 μM worked out at 3 min in series [1] and 5 min in series [4].
For the compound `CCn1c(CNC(=O)c2nc(Br)cnc2N)[n+](C)c2ccc(Cl)cc21.O=CO.O=C[O-]` [Example 11, 2-{[(3-amino-6-bromopyrazin-2-yl)formamido]methyl}-6-chloro-1-ethyl-3-methyl-1H-1,3-benzodiazol-3-ium formic acid formate], the half-life at 1 μM in series [1] was 4 min; in series [2], 6 min. The “Averages. Hep Half Life Human” value in series [3] was determined as 240 min. In series [4], the “Averages. Mic Half Life Human” value is 138 min.
With `CCn1c(CNC(=O)c2nc(Br)cnc2N)[n+](C)c2ccc(F)cc21.O=C[O-]` [Example 12, 2-{[(3-amino-6-bromopyrazin-2-yl)formamido]methyl}-1-ethyl-6-fluoro-3-methyl-1H-1,3-benzodiazol-3-ium formate], the values for the half-life at 1 μM in series [1] and in series [4] were 4 min and 111 min, respectively.
As to `CCn1c(CNC(=O)c2nc(Br)cnc2N)[n+](C)c2ccc(C(F)(F)F)cc21.[I-]` [Example 13, 2-{[(3-amino-6-bromopyrazin-2-yl)formamido]methyl}-1-ethyl-3-methyl-6-(trifluoromethyl)-1H-1,3-benzodiazol-3-ium iodide], the half-life at 1 μM in series [1] amounted to 5 min; in series [2] it was 14 min. Moreover, the “Averages. Hep Half Life Human” value in series [3] was 240 min. In series [4], the “Averages. Mic Half Life Human” value was 138 min.
As for `CCn1c(CNC(=O)c2nc(Br)cnc2N)[n+](C)c2ccc(OC(F)(F)F)cc21.O=C[O-]` [Example 14, 2-{[(3-amino-6-bromopyrazin-2-yl)formamido]methyl}-1-ethyl-3-methyl-6-(trifluoromethoxy)-1H-1,3-benzodiazol-3-ium formate], the half-life at 1 μM was 11 min in series [1], 28 min in series [2] and 205 min in series [3]. Besides, the “Averages. Mic Half Life Human” value in series [4] worked out at 138 min.
Regarding `CCn1c(CNC(=O)c2nc(Br)cnc2N)[n+](CC)c2ccc(C(=O)OC)cc21.[I-]` [Example 15, 2-{[(3-amino-6-bromopyrazin-2-yl)formamido]methyl}-1,3-diethyl-6-(methoxycarbonyl)-1H-1,3-benzodiazol-3-ium iodide], the half-life at 1 μM in series [1] was determined as 11 min; in series [2], 14 min; in series [3], 154 min. For the same compound, the “Averages. Mic Half Life Human” value in series [4] is 138 min.
With `CCn1c(CNC(=O)c2nc(Br)cnc2N)[n+](CC)c2ccc(C(=O)N[C@@H]3CCOC3=O)cc21` [Example 17, 2-{[(3-amino-6-bromopyrazin-2-yl)formamido]methyl}-1,3-diethyl-6-{[(3R)-2-oxooxolan-3-yl]carbamoyl}-1H-1,3-benzodiazol-3-ium formate], the half-life at 1 μM was 29 min in series [1], 32 min in series [2], 101 min in series [3] and 135 min in series [4].
As to `CCn1c(CNC(=O)c2nc(Br)cnc2N)[n+](CC)c2ccc(C(=O)N[C@H]3CCOC3=O)cc21` [Example 18, 2-{[(3-amino-6-bromopyrazin-2-yl)formamido]methyl}-1,3-diethyl-6-{[(3S)-2-oxooxolan-3-yl]carbamoyl}-1H-1,3-benzodiazol-3-ium formate], the half-life at 1 μM in series [1] is 61 min; in series [2], 46 min; in series [3] it was 137 min; in series [4] it was more than 138 min.
In the case of `CCn1c(CNC(=O)c2nc(Br)cnc2N)[n+](Cc2ccccc2)c2ccc(C(F)(F)F)cc21.O=C[O-]` [Example 19, 2-{[(3-Amino-6-bromopyrazin-2-yl)formamido]methyl}-3-benzyl-1-ethyl-6-(trifluoromethyl)-1H-1,3-benzodiazol-3-ium formate], in series [2], the half-life at 1 μM was 17 min. Moreover, the “Averages. Hep Half Life Human” value in series [3] worked out at 240 min.
Turning to `CCn1c(CNC(=O)c2nc(Br)cnc2N)[n+](CC)c2ccc(-c3cnn(C4CCN(C(=O)OC(C)(C)C)CC4)c3)cc21.[I-]` [Example 20, 2-{[(3-amino-6-bromopyrazin-2-yl)formamido]methyl}-6-(1-{1-[(tert-butoxy)carbonyl]piperidin-4-yl}-1H-pyrazol-4-yl)-1,3-diethyl-1H-1,3-benzodiazol-3-ium iodide], the half-life at 1 μM is 61 min in series [1], 20 min in series [2], 70 min in series [3] and more than 138 min in series [4].
